Literature values as cited in PMC7610473, “Axial functionalisation of photoactive diazido platinum(iv) anticancer complexes” (Inorganic chemistry frontiers, 2020).

Design: method as in PMID 9399704

pK a: 1.98
Compound: O=C(O)c1cc2ccc(O)cc2oc1=O [7-hydroxycoumarin-3 carboxylic acid]
